In PubChem BioAssay (NCI) one finds TGI data, which are given here for 15 compounds.

In general, TGI refers to the concentration at which net growth stops. Higher therefore signals less potent growth arrest.

What all share (test): DTP human tumour cell line panel, 48 h
Test [1] relates to SNB-75 CNS.
For test [2], the system named is NCI-H522 lung.
Test [3] relates to HL-60(TB) leukemia.
The test system of test [4] is A549 NSCLC.
Test [5] deals with HOP-62 NSCLC.
For test [6], the system named is OVCAR-8 ovarian.
For test [7], the system named is M14 melanoma.
In test [8] the test system is SF-268 CNS.
The subject of test [9] is RXF 393 renal.

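Following 48 hours of exposure in 96-well plates, responses at five concentrations were used to interpolate endpoints linearly. Definition used: TGI = concentration required for complete inhibition of growth.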

Take `COc1ccc(NC(=O)CC(=O)n2nc(C)c(N=Nc3ccccc3C(=O)O)c2C)cc1`: the TGI was 78.8 µM in [1]; greater than 100 µM in test [2]; greater than 100 µM in test [3]; greater than 100 µM in test [4]; greater than 100 µM in test [5]; greater than 100 µM in test [6]. For the same compound, the TGI in test [7] and in test [8] was greater than 100 µM throughout.

Regarding `CC(=O)NC(C=O)C(O[C@H](C)C(=O)NC(C)C(=O)NC(CCC(N)=O)C(=O)OCc1ccccc1)C(O)C(O)COC(=O)CCNc1c2ccccc2nc2cccc([N+](=O)[O-])c12` (stereo partly specified), the TGI in test [1] came out at 17.8 µM; in test [2] it was 4.49 µM; in [3], 31.8 µM; in test [9] it was 12 µM; in [4], 5.13 µM; in [5], 10.2 µM. Moreover, the TGI in [6] was found to be 18.7 µM; in [7], 4.58 µM; in [8], 5.11 µM.

Regarding `CCCCCCCCCCCc1c(O)c(=O)c2c(oc3c(=O)c(CCCCCCCCCCC)c(O)c(=O)c3n2-c2ccc(N(C)C)cc2)c1=O`, the total growth inhibition concentration (TGI) is 62.4 µM in test [1]; greater than 100 µM in test [2]; 90.4 µM in test [3]; 44.4 µM in test [9]; 52.4 µM in test [4]; 45.9 µM in [5]. Moreover, the figures for the TGI in [6], in test [7] and in [8] were 51.5 µM, 32.8 µM and 58.1 µM, respectively.

Consider `O=c1[nH]cnc2c(COCCO)c[nH]c12`, for which the total growth inhibition concentration (TGI) in test [1], in test [2], in test [3], in test [9], in [5] and in [6] was greater than 100 µM in each case. For the same compound, the concentration for total growth inhibition (TGI) in [7] and in test [8] was greater than 100 µM each time.

On to `Cc1c2c(c(C)c3c1[nH]c1ccccc13)CN(C)CC2`, for which the TGI is 28.8 µM in test [1]; 31.3 µM in test [2]; greater than 100 µM in test [3]; 34.6 µM in [9]; greater than 100 µM in [4]; greater than 100 µM in test [5]. Further, the figures for the TGI in [6], in test [7] and in test [8] were 37.7 µM, 28.4 µM and 47.6 µM, respectively.

Turning to `CC(=O)c1ccc(NC(=O)C(=O)C(C#N)CC(C)(C)C=O)cc1` (stereo unspecified), the concentration for total growth inhibition (TGI) in test [2], in test [3], in [4], in [5], in test [6] and in [7] was greater than 100 µM in each case. This compound also came in with a TGI in [8] greater than 100 µM.

On to `CCC1(CN(C)C)CC/C(=C\c2ccc(OC)c(OC)c2)C1=O` (stereo unspecified), for which the TGI in test [1], in [2], in test [3], in test [9], in [4] and in [5] was greater than 100 µM throughout. The concentration for total growth inhibition (TGI) in test [6], in test [7] and in test [8] was greater than 100 µM throughout.

Turning to `NC(=O)CC(N=Cc1nc(-c2ccccc2)oc1O)C(=O)O` (stereo unspecified), the TGI in test [1], in test [2], in test [3], in test [9], in test [4] and in test [5] was greater than 100 µM each time. Besides, the TGI in [6], in test [7] and in test [8] was greater than 100 µM throughout.

As for `Cc1ccc(NC(=O)CCc2n[nH]c(=S)o2)cc1`, the TGI in [1], in test [2], in [3], in test [9], in test [4] and in test [5] was greater than 100 µM throughout. The TGI in test [6], in test [7] and in test [8] was greater than 100 µM in each case.

`COc1cccc(SSc2cccc(OC)c2C(=O)O)c1C(=O)O`: the TGI in test [1], in test [2], in test [3], in test [9], in [4] and in test [5] was greater than 100 µM each time. The TGI in test [6], in [7] and in test [8] was greater than 100 µM each time.

For the compound `N#CC1=C(O)NC(O)=C(C#N)C1c1ccc(C2C(C#N)=C(O)NC(O)=C2C#N)cc1`, the concentration for total growth inhibition (TGI) is greater than 100 µM in test [1]; 43.6 µM in test [2]; 75.3 µM in [3]; greater than 100 µM in test [9]; greater than 100 µM in test [4]; greater than 100 µM in test [5]. The TGI in [6], in test [7] and in [8] was greater than 100 µM each time.

Regarding `COC(=O)Cc1cc(=O)[nH]c2c1C(=O)CCC2`, the concentration for total growth inhibition (TGI) in test [2], in [3], in [9], in test [4], in test [6] and in test [7] was greater than 100 µM each time. Also, the concentration for total growth inhibition (TGI) in test [8] is greater than 100 µM.

For the compound `Cc1ccc(S(=O)(=O)N/N=C/C(C)C)cc1`, the concentration for total growth inhibition (TGI) in [1], in test [3], in [9], in test [4], in [5] and in [6] was greater than 100 µM in each case. Also, the TGI in test [7] and in test [8] was greater than 100 µM in each case.

For the compound `CC(C)(C)N/N=C(\C(=O)NC1=C(Cl)C(=O)c2ccccc2C1=O)C1C=CCS1(=O)=O` (stereo unspecified), the total growth inhibition concentration (TGI) was 24 µM in test [1]; 25.5 µM in test [2]; greater than 100 µM in test [3]; 38.5 µM in [4]; 72 µM in test [6]; 23.7 µM in test [7]. In test [8], this compound showed a TGI greater than 100 µM.

As for `O=C1CCCCC12CCC/C2=N\O` (stereo unspecified), the TGI in test [1], in [2], in test [3], in [9], in test [4] and in [5] was greater than 100 µM in each case. For the same compound, the total growth inhibition concentration (TGI) in test [6], in test [7] and in test [8] was greater than 100 µM in each case.
